Test results as given in PMC5371667, “Targeting Bile Acid Receptors: Discovery of a Potent and Selective Farnesoid X Receptor Agonist as a New Lead in the Pharmacological Approach to Liver Diseases” (Frontiers in Pharmacology, 2017).

How the values were obtained:
[1] = mouse, in vivo, po, 50 mg/kg
[2] = system: FXR target genes in liver; assay: Hepatic FXR target gene expression in C57BL6 mice (RT-PCR); format: in vivo; conditions: 50 mg/kg per os, p < 0.05 versus control mice
Description: HepG2 cells were plated at 1 × 10^6 cells/well in a six well plate. After an overnight incubation, cells were starved and then stimulated for 18 h with compound 2 at 1 μM. Total RNA was isolated from HepG2 cells or liver tissues using the TRIzol reagent according to the manufacturer’s specifications (Invitrogen). One microgram of purified RNA was treated with DNase-I and reverse transcribed with Superscript II (Invitrogen). For Real Time PCR, 10 ng template was dissolved in 25 μL containing 200 nmol/L of each primer and 12.5 μL of 2× SYBR FAST Universal ready mix (Invitrogen). All reactions were performed in triplicate, and the thermal cycling conditions were as follows: 2 min at 95°C, followed by 40 cycles of 95°C for 20 s and 60°C for 30 s in StepOnePlus (Applied Biosystems). The relative mRNA expression was calculated accordingly to the Ct method. Primers were designed using the software PRIMER3^1 using published data obtained from the NCBI database. Forward and reverse primer sequences were the following: human GAPDH, […] and […]; human BSEP, […] and […]; human OSTα, […] and […]; human SHP, […] and […]; mouse NTCP, […] and […]; mouse CYP7A1, […] and […]; mouse FGF21, […] and […]; mouse GAPDH, […] and […]; mouse BSEP, […] and […]; mouse OSTα, […] and […]; mouse SHP, […] and […].
C57BL6 male mice were from Harlan Nossan (Udine, Italy). The colonies were maintained in the animal facility of University of Perugia. Mice were housed under controlled temperatures (22 °C) and photoperiods (12:12-hour light/dark cycle), allowed unrestricted access to standard mouse chow and tap water and allowed to acclimate to these conditions for at least 5 days before inclusion in an experiment. A total number of eight mice were used in this study. The study was conducted in agreement with the Italian law and the protocol was approved by Ethical Committee of University of Perugia and by a National Committee of Ministry of Health (permission N° 42/2014 B). The health and body conditions of the animals were monitored daily by the veterinarian in the animal facility. At the day of sacrifice mice were deeply anesthetized with a mixture of […]/xylazine at a dose of 50 mg/Kg.

LXRβ = biological target: T1, LXRβ (Homo sapiens, UniProt P55055); assay: LXRβ transactivation on HepG2 cells (GAL4 LBD reporter); format: cell-based; conditions: 10 μM
T1 construct: expressed in transfected cells; host or cells: HepG2
T1 sequence (P55055 222-460 limits assumed): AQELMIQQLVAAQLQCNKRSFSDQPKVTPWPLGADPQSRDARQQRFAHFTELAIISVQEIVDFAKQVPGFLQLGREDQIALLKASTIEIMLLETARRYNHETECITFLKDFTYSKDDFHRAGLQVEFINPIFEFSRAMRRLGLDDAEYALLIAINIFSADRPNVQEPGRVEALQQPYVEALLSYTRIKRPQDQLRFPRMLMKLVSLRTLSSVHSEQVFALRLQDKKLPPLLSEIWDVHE
Description: To evaluate LXRα and LXRβ mediated transactivation, HepG2 cells were transfected with 200 ng of the reporter vector p(UAS)5XTKLuc, 100 ng of a vector containing the ligand binding domain of LXRα or LXRβ cloned upstream of the GAL4-DNA binding domain (i.e., pSG5-LXRαLBD-GAL4DBD or pSG5-LXRβLBD-GAL4DBD) and 100 of pGL4.70 Renilla. At 24 h post-transfection, cells were stimulated 18 h with 10 μM compound 2 and GW3965 (GW, 10 μM) was used as positive control. To investigate the PPARα and PPARγ mediated transactivation, HepG2 cells were transiently transfected with 200 ng reporter vector p(UAS)9XTKLuc, 100 ng of a vector containing the ligand binding domain of PPARα or PPARγ cloned upstream of the GAL4-DNA binding domain (i.e., pSG5- PPARαLBD-GAL4DBD or pSG5- PPARγLBD-GAL4DBD) and 100 of pGL4.70 Renilla. For PPARα transactivation, cells were stimulated with 10 μM compound 2 and gemfibrozil (GEM, 10 μM) was used as positive control. For PPARγ transactivation, cells were stimulated with 10 μM compound 2 and rosiglitazone (ROSI, 100 nM) was used as a positive control. Luciferase activities were assayed and normalized with Renilla activities.

CC[C@H]1[C@@H](O)[C@@H]2[C@H](CC[C@]3(C)[C@@H]([C@H](C)CCC(=O)O)CC[C@@H]23)[C@@]2(C)CC[C@H](N=[N+]=[N-])C[C@@H]12 [compound 2, 3β-azido-6α-ethyl-7α-hydroxy-5β-cholan-24-oic acid]
liver metabolism / tauro-conjugation [1]: extensive liver metabolism | relative hepatic mRNA expression of BSEP [2]: significantly up-regulated | relative hepatic mRNA expression of CYP7A1 [2]: downregulated | relative hepatic mRNA expression of FGF21 [2]: significantly up-regulated | relative hepatic mRNA expression of OSTα [2]: significantly up-regulated | relative hepatic mRNA expression of SHP [2]: significantly up-regulated | LXRβ transactivation (LXRβ): unable in inducing
